Source: the NIST ThermoML archive (doi:10.1021/je900757k)

Assay: isobaric coefficient of expansion
Conditions: Liquid, DSC

ClC(Cl)(Cl)Cl [tetrachloromethane]
isobaric coefficient of expansion
Conditions	278.15 K	288.15 K	298.15 K	308.15 K	318.15 K	328.15 K	338.15 K	348.15 K
5000 kPa	0.00114 1/K	0.00116 1/K	0.00119 1/K	0.00121 1/K	0.00124 1/K	0.00126 1/K	0.0013 1/K	0.00132 1/K
10000 kPa	0.00112 1/K	0.00113 1/K	0.00116 1/K	0.00117 1/K	0.0012 1/K	0.00122 1/K	0.00125 1/K	0.00126 1/K
15000 kPa	0.00108 1/K	0.0011 1/K	0.00113 1/K	0.00114 1/K	0.00116 1/K	0.00118 1/K	0.00119 1/K	0.00121 1/K
20000 kPa	0.00106 1/K	0.00108 1/K	0.00109 1/K	0.00111 1/K	0.00113 1/K	0.00114 1/K	0.00115 1/K	0.00116 1/K
25000 kPa	0.00104 1/K	0.00105 1/K	0.00107 1/K	0.00108 1/K	0.00109 1/K	0.0011 1/K	0.00111 1/K	0.00112 1/K
30000 kPa	0.00102 1/K	0.00103 1/K	0.00104 1/K	0.00105 1/K	0.00106 1/K	0.00107 1/K	0.00108 1/K	0.00109 1/K
35000 kPa	0.001 1/K	0.00101 1/K	0.00102 1/K	0.00103 1/K	0.00104 1/K	0.00104 1/K	0.00105 1/K	0.00105 1/K
40000 kPa	0.000979 1/K	0.000985 1/K	0.000996 1/K	0.00101 1/K	0.00101 1/K	0.00101 1/K	0.00102 1/K	0.00102 1/K
45000 kPa	0.000959 1/K	0.000967 1/K	0.000978 1/K	0.000978 1/K	0.000986 1/K	0.000986 1/K	0.000988 1/K	0.000993 1/K
50000 kPa	0.000943 1/K	0.000949 1/K	0.000955 1/K	0.000959 1/K	0.00097 1/K	0.000965 1/K	0.000967 1/K	0.000969 1/K
55000 kPa	0.000936 1/K	0.00093 1/K	0.000935 1/K	0.00094 1/K	0.00095 1/K	0.000946 1/K	0.000945 1/K	0.000947 1/K

c1ccccc1 [benzene]
isobaric coefficient of expansion
Conditions	298.15 K	308.15 K	318.15 K	328.15 K	338.15 K	348.15 K
5000 kPa	0.0012 1/K	0.00121 1/K	0.00123 1/K	0.00126 1/K	0.00129 1/K	0.00132 1/K
10000 kPa	0.00116 1/K	0.00118 1/K	0.00119 1/K	0.00121 1/K	0.00123 1/K	0.00125 1/K
15000 kPa	0.00114 1/K	0.00115 1/K	0.00115 1/K	0.00117 1/K	0.00118 1/K	0.0012 1/K
20000 kPa	0.00111 1/K	0.00112 1/K	0.00113 1/K	0.00113 1/K	0.00114 1/K	0.00115 1/K
25000 kPa	0.00108 1/K	0.00108 1/K	0.00109 1/K	0.0011 1/K	0.0011 1/K	0.00111 1/K
30000 kPa	0.00105 1/K	0.00106 1/K	0.00106 1/K	0.00106 1/K	0.00107 1/K	0.00108 1/K
35000 kPa	0.00103 1/K	0.00103 1/K	0.00104 1/K	0.00104 1/K	0.00104 1/K	0.00104 1/K
40000 kPa	0.00101 1/K	0.00101 1/K	0.00101 1/K	0.00101 1/K	0.00101 1/K	0.00102 1/K
45000 kPa	0.000988 1/K	0.00099 1/K	0.000989 1/K	0.000989 1/K	0.000985 1/K	0.000986 1/K
50000 kPa	0.000971 1/K	0.000972 1/K	0.00097 1/K	0.000966 1/K	0.000966 1/K	0.000963 1/K
55000 kPa	0.000954 1/K	0.000955 1/K	0.000951 1/K	0.000948 1/K	0.000945 1/K	0.000941 1/K
